According to EP0811615A1, “1-Aryl-5-(substituted alkyl (thio) amido) pyrazoles and their use as pesticides” (RHONE-POULENC AGROCHIMIE, priority 1996, dated 1997):
Where two headings read alike, the source gives them in different places.

Key:
Type in all cases: in vivo
Mexican bean beetle = Mexican bean beetle foliar spray test on bean plants; conditions: Epilachna varivestis, 120 h, read-out: pest mortality MBB
Procedure: (§1) For mite, aphid, southern armyworm, Mexican bean beetle, and tobacco budworm tests, a solution or suspension was prepared by adding 10 mg of the test compound to a solution of 160 mg of dimethylformamide, 838 mg of acetone, 2 mg of a 3:1 ratio of Triton X-172 : Triton X-152 (respectively, mainly anionic and nonionic low foam emulsifiers which are each anhydrous blends of alkylaryl polyether alcohols with organic sulfonates), and […] of water. The result was a concentration of 100 ppm of the test compound.
(§2) Mexican bean beetle: Potted bean plants were placed on a revolving turntable and sprayed with 100 ml of the 100 ppm test compound formulation, sufficient to wet the plants to runoff, by use of a DeVilbiss spray gun set at 40 psig air pressure. As an untreated control, 100 ml of a water-acetone-DMF-emulsifier solution, containing no test compound, were also sprayed on plants. A treated control with a commercial technical compound, either cypermethrin or sulprofos, formulated in the same manner, was tested as a standard. When dry, the leaves were placed in plastic cups lined with moistened filter paper. Five randomly selected second instar Mexican bean beetle larvae were introduced into each cup which was closed and held for five days. Larvae which were unable to move the length of the body, even upon stimulation by prodding, were considered dead.

tobacco budworm = assay: Tobacco budworm foliar spray test on cotton plants; conditions: Heliothis virescens, 120 h, read-out: pest mortality TBW
Procedure: as §1
Tobacco budworm: Potted cotton plants were placed on a revolving turntable and sprayed with 100 ml of the 100 ppm test compound formulation by use of a DeVilbiss spray gun set at 40 psig air pressure. As an untreated control, 100 ml of a water-acetone-DMF-emulsifier solution, containing no test compound, were also sprayed on plants. A treated control with a commercial technical compound, either cypermethrin or sulprofos, formulated in the same manner, was tested as a standard. When dry, the leaves were placed in plastic dishes containing a piece of filter paper and a moistened dental wick. One randomly selected second instar tobacco budworm larva was then introduced into each cup which was closed and held for five days. Larvae unable to move the length of their body, even upon stimulation by prodding, were considered dead.

housefly = assay: House fly bait test; conditions: Musca domestica, read-out: pest mortality HF
Excerpt: For housefly tests, the formulation was initially prepared in a similar manner to the above, but in 16.3 g of water with corresponding adjustment of other components, providing a 200 ppm concentration. Final dilution with an equal volume of a 20% by weight aqueous solution of sucrose provided a 100 ppm concentration of the test compound. When necessary, sonication was provided to insure complete dispersion.
House fly: Four to six day old adult house flies were reared according to the specifications of the Chemical Specialties Manufacturing Association (Blue Book, McNair-Dorland Co., N.Y. 1954; pages 243-244, 261) under controlled conditions. The flies were immobilized by anesthetizing with carbon dioxide and twenty five immobilized individuals, males and females, were transferred to a cage consisting of a standard food strainer and a wrapping-paper-covered surface. Ten ml of the 100 ppm test compound formulation were added to a soufflé cup containing an absorbent cotton pad. As an untreated control, 10 ml of a water-acetone-DMF-emulsifier-sucrose solution, containing no test compound, were applied in a similar manner. A treated control with a commercial technical compound, malathion, formulated in the same manner, was tested as a standard. The bait cup was introduced inside the food strainer prior to admitting the anesthetized flies.

southern armyworm = assay: Southern armyworm foliar spray test on bean plants; conditions: Spodoptera eridania, 120 h, read-out: pest mortality SAW
Procedure: as §1
as §2, with “Southern armyworm: Potted” for “Mexican bean beetle: Potted”, “bean plants,” for “bean plants”, “compound formulation” for “compound formulation, sufficient to wet the plants to runoff,”, “instar southern armyworm” for “instar Mexican bean beetle”

[1] = foliar application at 100 ppm, second instar larvae, held five days
[2] = bait application at 100 ppm, adult flies, after 24 hours

| SMILES | mortality at 100 ppm (tobacco budworm; [1]) [%] | mortality at 100 ppm (housefly; [2]) [%] | mortality at 100 ppm (southern armyworm; [1]) [%] | further results |
| --- | --- | --- | --- | --- |
| COCC(=O)Nc1c(SC(F)(F)F)c(C#N)nn1-c1c(Cl)cc(C(F)(F)F)cc1Cl [Compound 1, 1-(2,6-dichloro-4-trifluoromethylphenyl)-3-cyano-4-trifluoromethylsulfenyl-5-(methoxyacetamido)pyrazole] | – | – | – | mortality at 100 ppm (Mexican bean beetle; foliar): 70 to 100%; mortality at 100 ppm (tobacco budworm; foliar): 70 to 100%; mortality at 100 ppm (housefly; 24 h): 70 to 100%; mortality at 100 ppm (southern armyworm; foliar): 70 to 100% |
| COCCOCC(=O)Nc1c(SC(F)(F)F)c(C#N)nn1-c1c(Cl)cc(C(F)(F)F)cc1Cl [Compound 3] | 70 to 100 | 70 to 100 | 70 to 100 | mortality at 100 ppm (Mexican bean beetle; [1]): 70 to 100% |
| COCCOCCOCC(=O)Nc1c(SC(F)(F)F)c(C#N)nn1-c1c(Cl)cc(C(F)(F)F)cc1Cl [Compound 4] | 70 to 100 | 70 to 100 | 70 to 100 | – |
| COC(=O)CCC(=O)Nc1c(SC(F)(F)F)c(C#N)nn1-c1c(Cl)cc(C(F)(F)F)cc1Cl [Compound 5] | 70 to 100 | 70 to 100 | 70 to 100 | – |
| CCCCOCC(=O)Nc1c(SC(F)(F)F)c(C#N)nn1-c1c(Cl)cc(C(F)(F)F)cc1Cl [Compound 6] | 70 to 100 | 70 to 100 | 70 to 100 | – |
| COCCOCCOCC(=O)Nc1c([S+]([O-])C(F)(F)F)c(C#N)nn1-c1c(Cl)cc(C(F)(F)F)cc1Cl (stereo not shown) [Compound 10] | – | – | 70 to 100 | – |
| COCC(=O)Nc1c(SC(F)(Cl)Cl)c(C#N)nn1-c1c(Cl)cc(C(F)(F)F)cc1Cl [Compound 14] | 70 to 100 | 70 to 100 | 70 to 100 | – |
| CCOCC(=O)Nc1c(SC(F)(Cl)Cl)c(C#N)nn1-c1c(Cl)cc(C(F)(F)F)cc1Cl [Compound 15] | 70 to 100 | 70 to 100 | 70 to 100 | – |
| COCCOCC(=O)Nc1c(SC(F)(Cl)Cl)c(C#N)nn1-c1c(Cl)cc(C(F)(F)F)cc1Cl [Compound 16] | 70 to 100 | 70 to 100 | 70 to 100 | – |
| COCC(=O)Nc1c([S+]([O-])C(F)F)c(C#N)nn1-c1c(Cl)cc(C(F)(F)F)cc1Cl (stereo not shown) [Compound 19] | – | 70 to 100 | 70 to 100 | – |
| CC(C)OCC(=O)Nc1c(SC(F)(F)F)c(C#N)nn1-c1c(Cl)cc(C(F)(F)F)cc1Cl [Compound 20] | 70 to 100 | 70 to 100 | 70 to 100 | mortality at 100 ppm (Mexican bean beetle; [1]): 70 to 100% |
| COC(C)C(=O)Nc1c(SC(F)(F)F)c(C#N)nn1-c1c(Cl)cc(C(F)(F)F)cc1Cl (stereo not shown) [Compound 21] | 70 to 100 | 70 to 100 | 70 to 100 | – |
| COC(C(=O)Nc1c(SC(F)(F)F)c(C#N)nn1-c1c(Cl)cc(C(F)(F)F)cc1Cl)C(C)C (stereo not shown) [Compound 23] | 70 to 100 | – | 70 to 100 | – |
| COC(C)C(=O)Nc1c(SC(F)(Cl)Cl)c(C#N)nn1-c1c(Cl)cc(C(F)(F)F)cc1Cl (stereo not shown) [Compound 26] | 70 to 100 | 70 to 100 | 70 to 100 | – |
| COC(C(=O)Nc1c(SC(F)(Cl)Cl)c(C#N)nn1-c1c(Cl)cc(C(F)(F)F)cc1Cl)C(C)C (stereo not shown) [Compound 27] | 70 to 100 | – | 70 to 100 | – |
| COC(C(=O)Nc1c([S+]([O-])C(F)(Cl)Cl)c(C#N)nn1-c1c(Cl)cc(C(F)(F)F)cc1Cl)C(C)C (stereo not shown) [Compound 29] | – | – | 70 to 100 | mortality at 100 ppm (Mexican bean beetle; [1]): 70 to 100% |
| COC(C)(C)C(=O)Nc1c(SC(F)(F)F)c(C#N)nn1-c1c(Cl)cc(C(F)(F)F)cc1Cl [Compound 30] | 70 to 100 | – | 70 to 100 | – |
| COC(C)(C)C(=O)Nc1c(SC(F)(Cl)Cl)c(C#N)nn1-c1c(Cl)cc(C(F)(F)F)cc1Cl [Compound 31] | 70 to 100 | – | 70 to 100 | – |
| CCCCCCOCC(=O)Nc1c(SC(F)(F)F)c(C#N)nn1-c1c(Cl)cc(C(F)(F)F)cc1Cl [Compound 33] | 70 to 100 | – | – | – |
| CC(C)COCC(=O)Nc1c(SC(F)(F)F)c(C#N)nn1-c1c(Cl)cc(C(F)(F)F)cc1Cl [Compound 35] | – | 70 to 100 | 70 to 100 | mortality at 100 ppm (Mexican bean beetle; [1]): 70 to 100% |
| CCCCCCCCCCCCOCC(=O)Nc1c(SC(F)(F)F)c(C#N)nn1-c1c(Cl)cc(C(F)(F)F)cc1Cl [Compound 36] | – | 70 to 100 | – | – |
| CCC(OC)C(=O)Nc1c(SC(F)(Cl)Cl)c(C#N)nn1-c1c(Cl)cc(C(F)(F)F)cc1Cl (stereo not shown) [Compound 37] | 70 to 100 | 70 to 100 | 70 to 100 | – |
| CCC(OC)C(=O)Nc1c(SC(F)(F)F)c(C#N)nn1-c1c(Cl)cc(C(F)(F)F)cc1Cl (stereo not shown) [Compound 38] | 70 to 100 | 70 to 100 | 70 to 100 | – |
| CCOC(CC)C(=O)Nc1c(SC(F)(F)F)c(C#N)nn1-c1c(Cl)cc(C(F)(F)F)cc1Cl (stereo not shown) [Compound 40] | – | 70 to 100 | 70 to 100 | – |
| CCCC(OCC)C(=O)Nc1c(SC(F)(F)F)c(C#N)nn1-c1c(Cl)cc(C(F)(F)F)cc1Cl (stereo not shown) [Compound 41] | – | 70 to 100 | 70 to 100 | – |
| CC(C)COC(C)C(=O)Nc1c(SC(F)(F)F)c(C#N)nn1-c1c(Cl)cc(C(F)(F)F)cc1Cl (stereo not shown) [Compound 43] | 70 to 100 | 70 to 100 | 70 to 100 | – |
| CC(C)COC(C)C(=O)Nc1c([S+]([O-])C(F)(F)F)c(C#N)nn1-c1c(Cl)cc(C(F)(F)F)cc1Cl (stereo not shown) [Compound 44] | – | 70 to 100 | 70 to 100 | mortality at 100 ppm (Mexican bean beetle; [1]): 70 to 100% |
| CCOC(C)C(=O)Nc1c(SC(F)(Cl)Cl)c(C#N)nn1-c1c(Cl)cc(C(F)(F)F)cc1Cl (stereo not shown) [Compound 45] | 70 to 100 | 70 to 100 | 70 to 100 | mortality at 100 ppm (Mexican bean beetle; [1]): 70 to 100% |
| C#CCN(C(=O)COC)c1c(SC(F)(F)F)c(C#N)nn1-c1c(Cl)cc(OC(F)(F)F)cc1Cl [Compound 48] | 70 to 100 | 70 to 100 | 70 to 100 | – |
| COCC(=O)Nc1c([N+](=O)[O-])c(Br)nn1-c1c(Cl)cc(C(F)(F)F)cc1Cl [Compound 49] | 70 to 100 | – | 70 to 100 | – |
